From article doi:10.1101/427617v2 (bioRxiv, 2019)

Experiments:
[1] = tested on: dural lymphatic cells; experiment: pHrodo-dextran uptake, live cell imaging; type: cell-based, rat; conditions: 10kD pHrodo-dextran, Dyngo4a at 100-200μM, Fig. 12B, 12D
[2] = tested on: dural lymphatic cells; experiment: transferrin-AlexaFluor647 uptake, live cell imaging; type: cell-based, rat

Compound	Effect of inhibitor on pHrodo dextran uptake [1]	Effect of inhibitor on transferrin-AlexaFluor647 uptake ([2]; same concentration (100-200μM), Fig. 12C)	Uptake of labeled transferrin by lymphatic cells [2]
O=C(N/N=C/c1cc(O)c(O)cc1O)c1cc2ccccc2cc1O [Dyngo4a]	blocked in dose dependent fashion	specifically blocked	
CCCCC[C@@H](O)[C@H]1C(=O)O[C@H](C)[C@@H](O)/C=C/C=C/C=C/C=C/C=C(\C)[C@@H](O)C[C@H](O)C[C@H](O)C[C@H](O)C[C@H](O)C[C@H](O)C[C@@H]1O [filipin]	blocked uptake		
transferrin-AlexaFluor647: labeled transferrin used to test clathrin-dependent endocytosis			avidly took up
